Measurements published in patent publication EP1285920A1, “C10 Ester sustituted taxanes as antitumor agents” (Florida State University Research Foundation, Inc., priority 2001, dated 2003).
Read-outs that look alike come from different tables or passages of the source.

Legend:
VM46 colon carcinoma = details: for Toxic Deaths / Complete Response / Partial Response / Stable Disease / Survivors: number of mice; for Complete Response / Partial Response / Stable Disease / Survivors: Day 64
Experimental: Dosing was initiated on Day 1. […] Taxotere was given i.v. at a dose of 70 mg/kg on a qd x 1 schedule.

A2780 ovarian carcinoma = system: A2780 ovarian carcinoma
Experimental: Dosing was initiated on Day 1. […] Taxotere was given i.v. on a qd x 1 schedule at a dose of 70 mg/kg. […] The study was terminated on Day 60. Treatment groups are detailed in Table 7.

HCT116 carcinoma = system: HCT116 carcinoma
Experimental: Antitumor compounds were formulated for an i.v. dosing regime and were prepared in the following vehicle: 5% ethanol, 5% Cremophor and 90% isotonic saline.
The antitumor compounds were given intravenously in a single maximum tolerated dose (MTD) appropriate for each compound. […] The MTDs for the antitumor compounds were calculated from earlier single dose data for mice receiving i.v. administration of these compounds. All vehicle control animals in the split dosing regimes were dosed twice intravenously with half of the total volume being given separated by one hour. The study was terminated on Day 60.
A complete response is obtained if the tumor is not palpable at the end of the study.

HCT116 = experiment: In Vitro cytotoxicity measured by the cell colony formation assay; assay type: cell-based, human; details: Homo sapiens, HCT-116; read-out: IN VITRO ID 50 HCT116
Summary of the method: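 Four hundred cells per dish in McCoy's 5a medium with 10% FBS were allowed to attach for 5 h at 37 °C. They were then exposed to compound for 72 h at 37 °C, added as a 10× stock made fresh in medium. After HBSS rinsing and refeeding, colonies were counted after 7 days.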

MX-1 carcinoma = system: MX-1 carcinoma
Experimental: Thirteen antitumor compounds were formulated for an i.v. dosing regime (single i.v. bolus, qd x 1 schedule) prepared in the following vehicle: 5% ethanol, 5% Cremophor and 90% isotonic saline.
The antitumor compounds were given intravenously in a single maximum tolerated dose (MTD) appropriate for each compound. […] The MTDs for the antitumor compounds were calculated from earlier single dose data for mice receiving i.v. administration of these compounds. All vehicle control animals in the split dosing regimes were dosed twice intravenously with half the total volume being given separated by one hour. The study was terminated on Day 60.
A complete response is obtained if the tumor is not palpable at the end of the study. […]

A375 melanoma = system: A375 melanoma
Experimental: Dosing was initiated on Day 1. […] Taxotere was given i.v. on a qd x 1 schedule at a dose of 70 mg/kg. […] The study was terminated on Day 60. Treatment groups are detailed in Table 9.

[1] = i.v. qd x 1, mg/kg: Taxol 24, 0499 77, 0503 72.6, 0670 123.1, 0706 107.6, 0838 72.6, 0854 46.6, 0983 67.4, Taxotere 70, 6 mice/group
[2] = number of mice, i.v. qd x 1 at estimated MTD (Taxol 24 mg/kg, Taxotere 70 mg/kg, 0983 72.6 mg/kg), 5 mice/group (Taxotere 6)
[3] = number of mice, i.v. qd x 1 at estimated MTD (Taxol 24 mg/kg, Taxotere 70 mg/kg, 0983 72.6 mg/kg), 5 mice/group (Taxotere 6), Day 60
[4] = number of mice, i.v. qd x 1 at estimated MTD (Taxol 24 mg/kg, Taxotere 70 mg/kg), 6 mice/group (Taxotere 7), Day 60

CCCC(=O)O[C@H]1C(=O)[C@@]2(C)[C@H]([C@H](OC(=O)c3ccccc3)[C@]3(O)C[C@H](OC(=O)[C@H](O)[C@@H](NC(=O)OC(C)(C)C)c4ccco4)C(C)=C1C3(C)C)[C@]1(OC(C)=O)CO[C@@H]1C[C@@H]2O [Compound 0983]
response rate (VM46 colon carcinoma; VM46, i.v. qd x 1 at estimated MTD): 0% | Mean Score (VM46 colon carcinoma; iv): 1.7 ± 0.8 | MDS (n) (VM46 colon carcinoma; iv, 1536 h): 56.0 ± 6.8 (2) days | Toxic Deaths (VM46 colon carcinoma; [1]): 3 | Complete Response (VM46 colon carcinoma; [1]): 0 | Partial Response (VM46 colon carcinoma; [1]): 0 | Stable Disease (VM46 colon carcinoma; [1]): 1 | Survivors (VM46 colon carcinoma; [1]): 1 | Mean Score (A2780 ovarian carcinoma; iv, 72.6 mg/kg): 0 ± 0 | Complete Response (A2780 ovarian carcinoma; iv, 72.6 mg/kg, 1440 h): 0 | Partial Respons (A2780 ovarian carcinoma; iv, 72.6 mg/kg, 1440 h): 0 | Stable Disease (A2780 ovarian carcinoma; iv, 72.6 mg/kg, 1440 h): 0 | Toxic Deaths (A2780 ovarian carcinoma; [2]): 5 | Survivors (A2780 ovarian carcinoma; [3]): 0 | group mean weight losses (HCT116 carcinoma; HCT116, single i.v. MTD, Days 6-10): over 20% | Partial Response (HCT116 carcinoma; iv): 1 | Complete Response (HCT116 carcinoma; iv, 1440 h): 2 | Mean Score (HCT116 carcinoma; iv, 1440 h): 5.8 ± 2.4 | Stable Disease (HCT116 carcinoma; iv, 1440 h): 0 | Survivors (HCT116 carcinoma; number of 5 mice, i.v. qd x 1 at MTD, Day 60, doses as in E3): 3 | Toxic Deaths (HCT116 carcinoma; number of 5 mice, i.v. qd x 1 at MTD, Day 60, mg/kg: Taxol 36 (split doses), 0503 72.6, 0536 49, 0663 159, 0670 123, 0687 159, 0706 108, 0908 159, 0947 76.9, 0951 72.6, 0983 72.6, 0999 49, 1003 49, 1011 108): 2 | IC50 (HCT116): < 1 nM | Partial Response (MX-1 carcinoma; iv): 0 | Complete Response (MX-1 carcinoma; iv, 1440 h): 6 | Mean Score (MX-1 carcinoma; iv, 1440 h): 10 ± 0 | Stable Disease (MX-1 carcinoma; iv, 1440 h): 0 | Survivors (MX-1 carcinoma; number of 6 mice, i.v. qd x 1 at MTD, Day 60, doses as in E17): 6 | Toxic Deaths (MX-1 carcinoma; number of 6 mice, i.v. qd x 1 at MTD, Day 60, mg/kg: Taxol 36 (split dose), 0503 72.6, 0536 49, 0663 159, 0670 123, 0687 159, 0706 108, 0908 159, 0947 76.9, 0951 72.6, 0983 67.4, 0999 49, 1003 49, 1011 108): 0

CC(=O)O[C@@]12CO[C@@H]1C[C@H](O)[C@@]1(C)C(=O)[C@H](O)C3=C(C)[C@@H](OC(=O)[C@H](O)[C@@H](NC(=O)OC(C)(C)C)c4ccccc4)C[C@@](O)([C@@H](OC(=O)c4ccccc4)[C@H]21)C3(C)C [Taxotere, docetaxel, reference compound]
MDS (VM46 colon carcinoma; VM46, i.v. qd x 1 (Taxol 24 mg/kg split; Taxotere 70 mg/kg), days until tumor 1.5 g): 45.3 days | MDS (n) (VM46 colon carcinoma; mean days of survival until neoplasm reached 1.5 g, i.v. qd x 1, mg/kg: Taxol 24, 0499 77, 0503 72.6, 0670 123.1, 0706 107.6, 0838 72.6, 0854 46.6, 0983 67.4, Taxotere 70, 6 mice/group, terminated Day 64): 45.3 ± 3.6 (6) days | Toxic Deaths (VM46 colon carcinoma; [1]): 0 | Complete Response (VM46 colon carcinoma; [1]): 0 | Partial Response (VM46 colon carcinoma; [1]): 0 | Stable Disease (VM46 colon carcinoma; [1]): 0 | Survivors (VM46 colon carcinoma; [1]): 0 | Mean Score (VM46 colon carcinoma; tumor scoring system, i.v. qd x 1, mg/kg: Taxol 24, 0499 77, 0503 72.6, 0670 123.1, 0706 107.6, 0838 72.6, 0854 46.6, 0983 67.4, Taxotere 70, 6 mice/group): 2 ± 0 | survival extension compared to Group 1 controls (A375 melanoma; A375, i.v. qd x 1): 49% | MDS (A375 melanoma; A375, i.v. qd x 1 (Taxol 24 mg/kg split; Taxotere 70 mg/kg), days until tumor 2.0 g, ended Day 60): 21.5 days | MDS (n) (A375 melanoma; mean days of survival until neoplasm reached 2.0 g, i.v. qd x 1 at estimated MTD (Taxol 24 mg/kg, Taxotere 70 mg/kg), 6 mice/group (Taxotere 7), terminated Day 60): 21.5 ± 0.5 (7) days | Toxic Deaths (A375 melanoma; number of mice, i.v. qd x 1 at estimated MTD (Taxol 24 mg/kg, Taxotere 70 mg/kg), 6 mice/group (Taxotere 7)): 0 | Complete Response (A375 melanoma; [4]): 0 | Partial Response (A375 melanoma; [4]): 0 | Stable Disease (A375 melanoma; [4]): 0 | Survivors (A375 melanoma; [4]): 0 | Mean Score (A375 melanoma; tumor scoring system, i.v. qd x 1 at estimated MTD (Taxol 24 mg/kg, Taxotere 70 mg/kg), 6 mice/group (Taxotere 7)): 2 ± 0 | antitumor activity (A2780 ovarian carcinoma; A2780, i.v. qd x 1): more active than Taxol | survival extension compared to Group 1 controls (A2780 ovarian carcinoma; A2780, i.v. qd x 1): 134% | MDS (A2780 ovarian carcinoma; A2780, i.v. qd x 1 (compounds estimated MTD; Taxol 24 mg/kg split; Taxotere 70 mg/kg), days until tumor 2.0 g, ended Day 60): 27.4 days | MDS (n) (A2780 ovarian carcinoma; mean days of survival until neoplasm reached 2.0 g, i.v. qd x 1 at estimated MTD (Taxol 24 mg/kg, Taxotere 70 mg/kg, 0983 72.6 mg/kg), 5 mice/group (Taxotere 6), terminated Day 60): 27.4 ± 3.5 (6) days | Toxic Deaths (A2780 ovarian carcinoma; [2]): 0 | Complete Response (A2780 ovarian carcinoma; [3]): 0 | Partial Respons (A2780 ovarian carcinoma; [3]): 0 | Stable Disease (A2780 ovarian carcinoma; [3]): 0 | Survivors (A2780 ovarian carcinoma; [3]): 0 | Mean Score (A2780 ovarian carcinoma; tumor scoring system, i.v. qd x 1 at estimated MTD (Taxol 24 mg/kg, Taxotere 70 mg/kg, 0983 72.6 mg/kg), 5 mice/group (Taxotere 6)): 2.5 ± 0.3 | IC50 (HCT116): 0.6 nM
